Experiments:
[1] = Particle size distribution; format: physicochemical
[2] = as mentioned in WO2008/069327 A1; cited from earlier work
[3] = cited from earlier work

Row | Particle size distribution D(0.1) [1] [μm] | Particle size distribution D(0.5) [1] [μm] | Particle size distribution D(0.9) [1] [μm] | Structure (SMILES) | stability and handling of amorphous form [2] | physical change between the sorption/desorption cycle ([3]; DVS, two cycles, appearance changed as humidity increased from 70% to 90% RH) | hygroscopic nature confirmed by Dynamic vapor sorption (DVS) analysis ([3]; amorphous canagliflozin prepared per US'487 A1 (toluene solution into n-heptane))
1 | 28.7 | 61.4 | 116.4 | Cc1ccc([C@@H]2O[C@H](CO)[C@@H](O)[C@H](O)[C@H]2O)cc1Cc1ccc(-c2ccc(F)cc2)s1 [Example-4, (1S)-1,5-anhydro-1-[3-[[5-(4-fluorophenyl)-2-thienyl]methyl]-4-methylphenyl]-D-glucitol] | – | – | –
2 | 3.29 | 7.69 | 14.5 | Cc1ccc([C@@H]2O[C@H](CO)[C@@H](O)[C@H](O)[C@H]2O)cc1Cc1ccc(-c2ccc(F)cc2)s1 [Example-2, (1S)-1,5-anhydro-1-[3-[[5-(4-fluorophenyl)-2-thienyl]methyl]-4-methylphenyl]-D-glucitol] | – | – | –
3 | – | – | – | Cc1ccc([C@@H]2O[C@H](CO)[C@@H](O)[C@H](O)[C@H]2O)cc1Cc1ccc(-c2ccc(F)cc2)s1 [amorphous canagliflozin, (1S)-1,5-anhydro-1-[3-[[5-(4-fluorophenyl)-2-thienyl]methyl]-4-methylphenyl]-D-glucitol] | suffers from stability and handling issues such as poor filterability | conversion or partial conversion from the amorphous state to a crystalline state | hygroscopic
